Assay type in all cases: in vivo
The subject of assay [1] is cantharidin mouse ear. The assay can be described thus: Mouse cantharidin screen (topical anti-inflammatory activity, mouse ear). The following applies: 500 μg/ear, 25 μg cantharidin, 24 h, ***P < 0.001. As to the method:
Compounds were tested for topical anti-inflammatory activity in a cantharidin mouse ear screen, modified from Swingle, K. F., Reiter, M. J. and Schwartzmiller, D. H., Arch. Int. Pharmacodyn., (1981), 254, 168-176).
(a) 25 μg cantharidin (in 10 μl THF/MeOH) was applied to both ears. Compound, in the same solvent, was applied at the same time, to the left ear only. Ears were weighed 24 h after cantharidin application. Percentage inhibition of the acute inflammatory swelling refers to the increase in weight of left ears (cantharidine plus compound) compared with solvent-treated negative controls, as a proportion of the increase in weight of right ears (cantharidin alone) over similar controls.

Assay [2] concerns Carrageenin-induced pleurisy in the rat. The assay can be described thus: Carrageenin-induced pleurisy in the rat (monocyte accumulation). The conditions noted are these: 25 mg/kg p.o., 1 hour before and 24 and 48 hours after carrageenin, 72 hours; compared to control (p<0.05). The procedure: This model of monocyte accumulation is based on the method of R. Vinegar, J. F. Truax, J. L. Selph and F. A. Voelker [Federation Proceedings 41, 2588-2595, 1982].
0.2 ml of a 2.0% solution of λ-carrageenin (Viscarin 402) in saline was injected intrapleurally in anaesthetised rats (wt. approx. 175-200 g). Compounds were administered 1 hour before carrageenin and at 24 and 48 hours after carrageenin. 72 hours after carrageenin injection, 4.0 ml of EDTA solution (5 g EDTA in 100 ml of 0.9% saline and 325 mg phenol red added together with saline to 1 liter) was injected intrapleurally after killing the animals, and the exudate was removed with a syringe through the diaphragm. Exudate volume was calculated from the dilution of the phenol red injected, determined spectrophotometrically (560 nm) and cellular content estimated with a DNA assay [Karsten U. and Wollenberger A. Anal. Biochem. 77, 464-470, 1977].

In assay [3] the test system is mouse sensitized to oxazolone. Briefly: Mouse oxazolone screen (topical anti-inflammatory activity, sensitized mouse ear). The following applies: 200 μg/ear, 1 hour before 100 μg oxazolone challenge, 24 hours, **p < 0.01, ***p < 0.001. The procedure: Compounds were tested for topical anti-inflammatory activity in a screen using the mouse sensitized to oxazolone, by a method modified from that of Dietrich and Hess [Int. Arch. Allergy, 38, 246 (1970)].
Mice were sensitized with oxazolone (2 mg in 20 μl EtOH) on a shaved area of the abdomen. 5 days later, the animals received 10 μl THF/MeOH (1:1 v/v) on the right ear and the test compound in the same solvent on the left ear. 1 hour later, the animals were challenged with 100 μg oxazolone in 10 μl acetone on each ear. Ear weights were measured 24 hours later. Percentage inhibition of the inflammatory swelling refers to the increase in weight of left ears (oxazolone plus compound in THF/MeOH) compared to untreated negative controls, as a proportion of the increase in weight of right ears (oxazolone only in THF/MeOH) over similar controls.

As to `CCCCNc1c(C)cnc2cn[nH]c12` [Example 1, 7n-Butylamino-6-methyl-1H-pyrazolo[4,3-b]pyridine], in assay [1], the “% INHIBITION (acute inflammatory swelling, ear weight)” value was determined as 95%.
As to `OCCNc1c2c(nc3cn[nH]c13)CCCC2` [Example 5, 9-(2-Hydroxyethylamino)-5,6,7,8-tetrahydro-1H-pyrazolo-[4,3-b]quinoline], in assay [2], the “inhibition of DNA content (exudate cellular content)” value is 31% and the “inhibition of exudate volume” value is 36%. Also, the “% INHIBITION (acute inflammatory swelling, ear weight)” value in assay [1] amounted to 91%.
As for `CC(C)CNc1c2c(nc3cn[nH]c13)CCC2` [Example 8, 8-Isobutylamino-5,6,7-trihydro-1H-cyclopenta[b]pyrazolo[3,4-e]pyridine], the “% INHIBITION (inflammatory swelling, ear weight)” value in assay [3] is 49%. Further, in assay [1], the “% INHIBITION (acute inflammatory swelling, ear weight)” value is 97%.
For the compound `CCCNc1c(CN)cnc2cn[nH]c12` [Example 9, 6-Aminomethyl-7-propylamino-1H-pyrazolo[4,3-b]pyridine], in assay [1], the “% INHIBITION (acute inflammatory swelling, ear weight)” value stood at 91%.
Turning to `CC(C)CNc1c2c(nc3cn[nH]c13)CCCC2` [Example 6, 9-Isobutylamino-5,6,7,8-tetrahydro-1H-pyrazolo[4,3-b]quinoline], the “% INHIBITION (inflammatory swelling, ear weight)” value in assay [3] is 66%. In assay [1], the “% INHIBITION (acute inflammatory swelling, ear weight)” value is 97%.

The values are drawn from patent US4837238A, “Pharmacologically useful pyrazolopyridines” (Beecham Group p.l.c., priority 1985, dated 1989).
